According to patent US5292736A, “Morpholinoalkylindenes as antiglaucoma agents” (Sterling Winthrop Inc., priority 1993, dated 1994):
Where two headings read alike, the source gives them in different places.

Tests used:
[1] = test system: mouse vas deferens; assay: mouse vas deferens test (MVD), screening for analgesic activity; type: cell-based; conditions: considered active at 5.0 μM or less
Protocol: (§1) In standard biological test procedures, compounds of formula I were tested for analgesic and cannabinoid receptor activity. The mouse vas deferens test correlates well with analgesic activity and has long been used to screen for such activity. Cannabinoid receptor binding is characteristic and predictive of the efficacy of intraocular pressure reducing compounds and was thus used to test the compounds of formula I for antiglaucoma activity.
The mouse vas deferens test (MVD), a means of screening for analgesic activity, is disclosed in U.S. Pat. No. 4,840,950, which is incorporated herein by reference.

[2] = test system: acetylcholine-induced abdominal constriction; assay: acetylcholine-induced abdominal constriction test (ACH), oral; type: in vivo; conditions: oral administration
Excerpt: Data obtained by the oral administration of the invention in the acetylcholine-induced abdominal constriction test (ACH), a measure of analgesic effectiveness, are expressed in the table below as the ED50 in mg/kg or as the percent inhibition at a given dose level in mg/kg. The acetyl choline-induced abdominal constriction test (ACH) is described in Brit. J. Pharmacol., 32: 295 (1968) and U.S. Pat. No. 4,581,534, incorporated herein by reference.

[3] = molecular target: T1, cannabinoid receptor (Rattus norvegicus, UniProt P20272); assay: cannabinoid receptor binding test (CR), predictive of antiglaucoma activity
T1 construct: Brain tissue from rats was homogenized; from tissue; host or cells: rat brain, washed homogenate membranes
Protocol: as §1
Data from the cannabinoid receptor binding test (CR), predictive of antiglaucoma activity, was obtained as follows:
Brain tissue from rats was homogenized in ice cold 20 mM HEPES-NaOH, pH 7.0, diluted approximately 1:100 (w/v) with the same buffer and centrifuged at 48,000 g for 10 minutes at 4° C. The pellet was washed by resuspension and centrifugation as above. The final pellet was suspended (1:120 w/v) in 20 mM HEPES-NaOH, pH 7.0 and stored on ice for use within 1 hour.
Compounds (10 mM) were solubilized in a mixture of 0.3 N methane sulfonic acid - 13.5% ethanol. Cannabinoids were dissolved in absolute ethanol. Other compounds were dissolved in dimethylsulfoxide (DMSO). All compounds were diluted in 20 mM HEPES, pH 7.0 containing 5 mg/ml bovine serum albumin (BSA).
The final assay concentration of BSA was 1.0 mg/ml in these experiments. Final assay concentrations of ≤50 mM ethanol, ≤1×10^-3 N methane sulfonic acid, ≤2.5 mM ethanol+3×10^-4 N methane sulfonic acid or ≤3% DMSO had no effect on specific binding. The possible effects of all vehicles were controlled in each assay.
The assay was started with the addition of homogenate and the tubes incubated at 30° C. for 90 min in a shaking waterbath. Each tube contained 20 mM HEPES-NaOH buffer, pH 7.0, 1.0 mg/ml BSA, competing drug or vehicle, and 100-125 μg membrane protein in a 1 ml incubation volume. Saturation studies were conducted over 3 log units of radioligand concentration (0.1-22 nM). Specific binding was defined as the difference in binding in the presence and absence of 1.0 μM unlabeled 2-[(3-chloro-4-hydroxyphenyl)amino]benzene methanol, a molecule that is known to […] bind to cannabinoid receptors.
Samples were filtered over Whatman GF/B filters with 20 ml of 20 mM HEPES, pH 7.0, containing 0.5 mg/ml BSA. Radioactivity on the filters, expressed in dpm, was measured by liquid scintillation spectrometry. Assays were conducted in triplicate and experiments were repeated at least three times.
The results for the CR test are IC50 concentrations (in nM) or % inhibition at 1 μM and 30 μM concentrations.

[4] = rat brain membranes, pH 7.0, 30° C., 90 min; read-out: CR IC50
[5] = 30 μM; rat brain membranes, pH 7.0, 30° C., 90 min
[6] = 1 μM; rat brain membranes, pH 7.0, 30° C., 90 min

T1 sequence (P20272 whole entry): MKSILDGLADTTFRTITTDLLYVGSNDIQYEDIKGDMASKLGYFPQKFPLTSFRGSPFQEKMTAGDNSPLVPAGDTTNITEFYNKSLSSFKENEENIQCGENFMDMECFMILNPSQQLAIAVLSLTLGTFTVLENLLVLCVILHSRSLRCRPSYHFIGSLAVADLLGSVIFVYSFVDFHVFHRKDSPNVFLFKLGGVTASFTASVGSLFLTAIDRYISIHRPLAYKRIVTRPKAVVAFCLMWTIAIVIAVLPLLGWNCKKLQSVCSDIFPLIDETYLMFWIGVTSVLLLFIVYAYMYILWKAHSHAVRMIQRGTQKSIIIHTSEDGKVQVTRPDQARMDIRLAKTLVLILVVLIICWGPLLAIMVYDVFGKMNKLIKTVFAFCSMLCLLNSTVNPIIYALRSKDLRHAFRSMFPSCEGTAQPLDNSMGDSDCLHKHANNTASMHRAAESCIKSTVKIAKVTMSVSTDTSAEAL

COc1ccc(C=C2C=C(CCN3CCOCC3)c3ccccc32)c2ccccc12 [Example 8]
IC50 [1]: 8 nM
ED50 [2]: 3.2 mg/kg
IC50 [3, 4]: 0.9 nM

CN(C)c1ccc(C=C2C=C(CCN3CCOCC3)c3ccccc32)cc1 [Example 6]
ED50 [2]: 103 mg/kg
inhibition at 30 µM [3, 5]: 88%

Fc1ccc(C=C2C=C(CCCN3CCOCC3)c3ccccc32)cc1 [Example 5]
ED50 [2]: 52 mg/kg
inhibition at 30 µM [3, 5]: 5%

Fc1ccccc1C=C1C=C(CCN2CCOCC2)c2ccccc21 [Example 7]
ED50 [2]: 86 mg/kg
inhibition at 30 µM [3, 5]: 78%

C(=C1C=C(CCN2CCOCC2)c2ccccc21)c1c2ccccc2cc2ccccc12 [Example 20]
IC50 [1]: 812 nM

CC1=C(CCN2CCOCC2)c2ccccc2C1=Cc1cccc2ccccc12 [Example 10]
IC50 [1]: 45 nM
ED50 [2]: 34 mg/kg
IC50 [3, 4]: 10 nM

C(=C1C=C(CCN2CCOCC2)c2ccccc21)c1cccc2[nH]ccc12 [Example 18]
IC50 [1]: 310 nM
ED50 [2]: 15 mg/kg

COc1ccc(C=C2C=C(CCN3CCOCC3)c3ccccc32)cc1 [Example 1, 4-[2-[1-[(4-methoxyphenyl)methylene]-1H-inden-3-yl)ethyl]morpholine]
IC50 [1]: 80 nM
ED50 [2]: 46 mg/kg
IC50 ([3]; read-out: CR IC50; rat brain membranes, pH 7.0, 30° C., 90 min): 58 nM

C(=C1C=C(CCCN2CCOCC2)c2ccccc21)c1cccc2ccccc12 [Example 12]
IC50 [1]: 96 nM
Ach percent inhibition at 100 mg/kg [2]: 30%
inhibition at 1 µM [3, 6]: 97%

COc1ccc(C=C2C(C)=C(CCN3CCOCC3)c3ccccc32)cc1 [Example 3]
Ach percent inhibition at 100 mg/kg [2]: 30%
inhibition at 1 µM [3, 6]: 45%

Oc1ccc(C=C2C=C(CCN3CCOCC3)c3ccccc32)c2ccccc12 [Example 19]
ED50 [2]: 2.7 mg/kg
inhibition at 1 µM [3, 6]: 97%

COc1ccc(C=C2C=C(CCN3CCOCC3)c3ccccc32)cc1OC [Example 13]
IC50 [1]: 19 nM
ED50 [2]: 19 mg/kg
IC50 [3, 4]: 28 nM

N#Cc1ccc(C=C2C=C(CCN3CCOCC3)c3ccccc32)cc1 [Example 17]
ED50 [2]: 100 mg/kg
inhibition at 1 µM [3, 6]: 76%

C(=Cc1ccccc1)C=C1C=C(CCN2CCOCC2)c2ccccc21 [Example 14]
Ach percent inhibition at 100 mg/kg [2]: 20%
inhibition at 1 µM [3, 6]: 68%

C[S+]([O-])c1ccc(C=C2C=C(CCN3CCOCC3)c3ccccc32)cc1 (centres unmarked) [Example 21, 4-[2-[[1-[4-(methylsulfinyl)phenyl]methylene]-1H-inden-3-yl]ethyl]morpholine]
IC50 [1]: 193 nM
ED50 [2]: 25 mg/kg

COc1ccc(C=C2C(C)=C(CCN3CCOCC3)c3ccccc32)c2ccccc12 [Example 16]
IC50 [1]: 350 nM
Ach percent inhibition at 100 mg/kg [2]: 30%

CC1=C(CCN2CCOCC2)c2ccccc2C1=Cc1ccnc2ccccc12 [Example 11]
IC50 [1]: 1650 nM
Ach percent inhibition at 100 mg/kg [2]: 40%

C(=C1C=C(CCN2CCOCC2)c2ccccc21)c1ccccc1 [Example 2]
IC50 [1]: 79 nM
ED50 [2]: 65 mg/kg
inhibition at 1 µM [3, 6]: 33%

COc1ccc(C=C2C=C(CCCN3CCOCC3)c3ccccc32)c2ccccc12 [Example 15]
Ach percent inhibition at 100 mg/kg [2]: 10%
IC50 [3, 4]: 12 nM

COc1ccc(C(=O)OC(=C2C=C(CCN3CCOCC3)c3ccccc32)c2ccc(OC)cc2)cc1 [Example 22, (4-methoxyphenyl)[3-(2-[4-morpholinyl)ethyl)-1H-inden-1-ylidine]methyl 4-methoxy benzoate]
Ach percent inhibition at 100 mg/kg [2]: 10%
inhibition at 1 µM [3, 6]: 51%

C(=C1C=C(CCN2CCOCC2)c2ccccc21)c1cccc2ccccc12 [Example 9]
IC50 [1]: 7 nM
Ach percent inhibition at 10 mg/kg ([2]; 10 mg/kg): 83%
IC50 [3, 4]: 1 nM

CSc1ccc(C=C2C=C(CCN3CCOCC3)c3ccccc32)cc1 [Example 4]
ED50 [2]: 50 mg/kg
inhibition at 1 µM [3, 6]: 96%
